The text below walks through data of the supplement of paper PMC10307832.

Test in all cases: relative viability (nuclei count vs DMSO), 5 days (fraction); higher = more cells survive
Compound in the assay “GW-2580 + Palbociclib”: COC1=CC=C(C=C1)COC2=C(C=C(C=C2)CC3=CN=C(N=C3N)N)OC [GW-2580] + CC(=O)c1c(C)c2cnc(Nc3ccc(N4CCNCC4)cn3)nc2n(C2CCCC2)c1=O [Palbociclib] (partner 0.5 µM)
In a few lines: (§1)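 Dosing by pin tool came one day after lung cancer cell lines were seeded in 1536-well plates, using either one drug or a fixed anchor-drug dose plus five library-drug doses (not always all listed) in √10 steps. After 5 days, nuclei were counted on 4× images. Relative viability is treated-well nuclei count divided by vehicle-well nuclei count, and values are medians of duplicate plates.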

Compound in the assay “GW-2580 + Trametinib”: COC1=CC=C(C=C1)COC2=C(C=C(C=C2)CC3=CN=C(N=C3N)N)OC [GW-2580] + CC(=O)Nc1cccc(-n2c(=O)n(C3CC3)c(=O)c3c(Nc4ccc(I)cc4F)n(C)c(=O)c(C)c32)c1 [Trametinib] (partner 0.02 µM)
In a few lines: as §1

Compound in the assay “GW-2580 + Navitoclax”: COC1=CC=C(C=C1)COC2=C(C=C(C=C2)CC3=CN=C(N=C3N)N)OC [GW-2580] + CC1(C)CCC(c2ccc(Cl)cc2)=C(CN2CCN(c3ccc(C(=O)NS(=O)(=O)c4ccc(N[C@H](CCN5CCOCC5)CSc5ccccc5)c(S(=O)(=O)C(F)(F)F)c4)cc3)CC2)C1 [Navitoclax] (partner 0.5 µM)
In a few lines:
as §1

Compound in the assay “Fedratinib + Phenformin”: Cc1cnc(Nc2ccc(OCCN3CCCC3)cc2)nc1Nc1cccc(S(=O)(=O)NC(C)(C)C)c1 [Fedratinib] + N=C(N)NC(=N)NCCc1ccccc1 [Phenformin] (partner 250 µM)
In a few lines: as §1

Compound in the assay “GW-2580 + Linsitinib”: COC1=CC=C(C=C1)COC2=C(C=C(C=C2)CC3=CN=C(N=C3N)N)OC [GW-2580] + C[C@]1(O)C[C@@H](c2nc(-c3ccc4ccc(-c5ccccc5)nc4c3)c3c(N)nccn32)C1 [Linsitinib] (partner 1 µM)
In a few lines:
as §1

As to PC-3 [JPC-3], the relative viability in the assay with GW-2580 + Palbociclib (first compound 0.08 µM) worked out at 0.546; with GW-2580 + Palbociclib (first compound 0.8 µM), 0.567; with GW-2580 + Palbociclib (first compound 2.53 µM) it was 0.515; with GW-2580 + Palbociclib (first compound 8 µM), 0.516; with GW-2580 + Trametinib (first compound 0.08 µM), 0.7; with GW-2580 + Trametinib (first compound 0.8 µM) it was 0.674. In addition, the relative viability with GW-2580 + Trametinib (first compound 2.53 µM) was determined as 0.685; with GW-2580 + Trametinib (first compound 8 µM) it was 0.745; with GW-2580 + Navitoclax (first compound 0.08 µM), 0.807; with GW-2580 + Navitoclax (first compound 0.8 µM), 0.854; in the assay with GW-2580 + Navitoclax (first compound 2.53 µM) it was 0.72; in the assay with GW-2580 + Navitoclax (first compound 8 µM), 0.779. For the same cell line, the relative viability amounted to 0.508 with Fedratinib + Phenformin (first compound 0.1 µM); 0.466 with Fedratinib + Phenformin (first compound 0.3162 µM); 0.482 with Fedratinib + Phenformin (first compound 1 µM); 0.96 in the assay with GW-2580 + Linsitinib (first compound 0.08 µM); 0.995 with GW-2580 + Linsitinib (first compound 0.8 µM); 0.966 with GW-2580 + Linsitinib (first compound 2.53 µM). Further, in the assay with GW-2580 + Linsitinib (first compound 8 µM), the relative viability came out at 0.967.

PC-14: the relative viability with GW-2580 + Palbociclib (first compound 0.08 µM) was 0.653; with GW-2580 + Palbociclib (first compound 0.8 µM) it was 0.614; with GW-2580 + Palbociclib (first compound 2.53 µM), 0.607; with GW-2580 + Palbociclib (first compound 8 µM), 0.473; with GW-2580 + Trametinib (first compound 0.08 µM), 0.806; in the assay with GW-2580 + Trametinib (first compound 0.8 µM), 0.675. The relative viability in the assay with GW-2580 + Trametinib (first compound 2.53 µM) is 0.585; in the assay with GW-2580 + Trametinib (first compound 8 µM), 0.637; in the assay with GW-2580 + Navitoclax (first compound 0.08 µM), 1.07; with GW-2580 + Navitoclax (first compound 0.8 µM), 1.05; with GW-2580 + Navitoclax (first compound 2.53 µM) it was 0.905; with GW-2580 + Navitoclax (first compound 8 µM), 1.05. The relative viability in the assay with Fedratinib + Phenformin (first compound 0.1 µM) amounted to 0.427; in the assay with Fedratinib + Phenformin (first compound 0.3162 µM), 0.676; with Fedratinib + Phenformin (first compound 1 µM), 0.386; with GW-2580 + Linsitinib (first compound 0.08 µM) it was 1.12; in the assay with GW-2580 + Linsitinib (first compound 0.8 µM), 0.987; with GW-2580 + Linsitinib (first compound 2.53 µM) it was 0.934. Besides, in the assay with GW-2580 + Linsitinib (first compound 8 µM), the relative viability stood at 1.03.

Take RERF-LC-KJ: the relative viability in the assay with GW-2580 + Palbociclib (first compound 0.08 µM) was 1.13; in the assay with GW-2580 + Palbociclib (first compound 0.8 µM), 1.24; in the assay with GW-2580 + Palbociclib (first compound 2.53 µM), 0.988; with GW-2580 + Palbociclib (first compound 8 µM), 1.07; in the assay with GW-2580 + Trametinib (first compound 0.08 µM), 0.821; with GW-2580 + Trametinib (first compound 0.8 µM) it was 0.953. Moreover, the relative viability with GW-2580 + Trametinib (first compound 2.53 µM) is 0.769; in the assay with GW-2580 + Trametinib (first compound 8 µM), 0.82; with GW-2580 + Navitoclax (first compound 0.08 µM), 0.871; with GW-2580 + Navitoclax (first compound 0.8 µM), 1.04; with GW-2580 + Navitoclax (first compound 2.53 µM) it was 1.13; with GW-2580 + Navitoclax (first compound 8 µM), 0.995. The relative viability with Fedratinib + Phenformin (first compound 0.1 µM) is 0.384; with Fedratinib + Phenformin (first compound 0.3162 µM) it was 0.433; with Fedratinib + Phenformin (first compound 1 µM), 0.373; with GW-2580 + Linsitinib (first compound 0.08 µM), 0.946; in the assay with GW-2580 + Linsitinib (first compound 0.8 µM) it was 0.939; with GW-2580 + Linsitinib (first compound 2.53 µM), 0.816. Besides, the relative viability in the assay with GW-2580 + Linsitinib (first compound 8 µM) amounted to 0.815.

Regarding SK-LU-1, the relative viability was found to be 0.414 with GW-2580 + Palbociclib (first compound 0.08 µM); 0.459 with GW-2580 + Palbociclib (first compound 0.8 µM); 0.29 with GW-2580 + Palbociclib (first compound 2.53 µM); 0.373 in the assay with GW-2580 + Palbociclib (first compound 8 µM); 0.498 in the assay with GW-2580 + Trametinib (first compound 0.08 µM); 0.437 with GW-2580 + Trametinib (first compound 0.8 µM). For the same cell line, the relative viability amounted to 0.375 in the assay with GW-2580 + Trametinib (first compound 2.53 µM); 0.518 with GW-2580 + Trametinib (first compound 8 µM); 0.869 in the assay with GW-2580 + Navitoclax (first compound 0.08 µM); 0.85 in the assay with GW-2580 + Navitoclax (first compound 0.8 µM); 1.06 with GW-2580 + Navitoclax (first compound 2.53 µM); 1.05 with GW-2580 + Navitoclax (first compound 8 µM). Besides, the relative viability in the assay with Fedratinib + Phenformin (first compound 0.1 µM) was determined as 0.5; in the assay with Fedratinib + Phenformin (first compound 0.3162 µM) it was 0.514; with Fedratinib + Phenformin (first compound 1 µM), 0.328; with GW-2580 + Linsitinib (first compound 0.08 µM) it was 1.39; with GW-2580 + Linsitinib (first compound 0.8 µM), 1.23; in the assay with GW-2580 + Linsitinib (first compound 2.53 µM), 1.04. Moreover, the relative viability in the assay with GW-2580 + Linsitinib (first compound 8 µM) turned out to be 1.16.

Regarding SK-MES-1, the relative viability in the assay with GW-2580 + Palbociclib (first compound 0.08 µM) worked out at 0.36; with GW-2580 + Palbociclib (first compound 0.8 µM), 0.322; with GW-2580 + Palbociclib (first compound 2.53 µM), 0.281; with GW-2580 + Palbociclib (first compound 8 µM), 0.318; in the assay with GW-2580 + Trametinib (first compound 0.08 µM) it was 0.585; in the assay with GW-2580 + Trametinib (first compound 0.8 µM), 0.491. The relative viability was determined as 0.522 in the assay with GW-2580 + Trametinib (first compound 2.53 µM); 0.503 with GW-2580 + Trametinib (first compound 8 µM); 1.4 with GW-2580 + Navitoclax (first compound 0.08 µM); 1.18 with GW-2580 + Navitoclax (first compound 0.8 µM); 1.1 with GW-2580 + Navitoclax (first compound 2.53 µM); 1.33 with GW-2580 + Navitoclax (first compound 8 µM). Also, the relative viability came to 0.511 with Fedratinib + Phenformin (first compound 0.1 µM); 0.644 in the assay with Fedratinib + Phenformin (first compound 0.3162 µM); 0.532 in the assay with Fedratinib + Phenformin (first compound 1 µM); 1.12 in the assay with GW-2580 + Linsitinib (first compound 0.08 µM); 1.14 in the assay with GW-2580 + Linsitinib (first compound 0.8 µM); 1.01 in the assay with GW-2580 + Linsitinib (first compound 2.53 µM). Besides, the relative viability with GW-2580 + Linsitinib (first compound 8 µM) was 1.09.

For the cell line SW 1573, the relative viability in the assay with GW-2580 + Palbociclib (first compound 0.08 µM) stood at 0.439; in the assay with GW-2580 + Palbociclib (first compound 0.8 µM), 0.38; with GW-2580 + Palbociclib (first compound 2.53 µM) it was 0.397; in the assay with GW-2580 + Palbociclib (first compound 8 µM), 0.408; with GW-2580 + Trametinib (first compound 0.08 µM) it was 0.535; with GW-2580 + Trametinib (first compound 0.8 µM) it was 0.598. The relative viability with GW-2580 + Trametinib (first compound 2.53 µM) came out at 0.532; with GW-2580 + Trametinib (first compound 8 µM) it was 0.614; with GW-2580 + Navitoclax (first compound 0.08 µM) it was 1; with GW-2580 + Navitoclax (first compound 0.8 µM) it was 1.04; in the assay with GW-2580 + Navitoclax (first compound 2.53 µM), 0.869; with GW-2580 + Navitoclax (first compound 8 µM) it was 0.929. Moreover, the relative viability in the assay with Fedratinib + Phenformin (first compound 0.1 µM) worked out at 0.32; with Fedratinib + Phenformin (first compound 0.3162 µM), 0.391; with Fedratinib + Phenformin (first compound 1 µM), 0.369; with GW-2580 + Linsitinib (first compound 0.08 µM), 0.744; in the assay with GW-2580 + Linsitinib (first compound 0.8 µM), 0.806; in the assay with GW-2580 + Linsitinib (first compound 2.53 µM), 0.713. For the same cell line, the relative viability with GW-2580 + Linsitinib (first compound 8 µM) was determined as 0.66.

As for UMC-11, the relative viability in the assay with GW-2580 + Palbociclib (first compound 0.08 µM) stood at 0.329; in the assay with GW-2580 + Palbociclib (first compound 0.8 µM), 0.352; with GW-2580 + Palbociclib (first compound 8 µM), 0.348; in the assay with GW-2580 + Trametinib (first compound 0.08 µM), 0.826; in the assay with GW-2580 + Trametinib (first compound 0.8 µM), 0.866; with GW-2580 + Trametinib (first compound 2.53 µM), 0.574. For the same cell line, the relative viability was found to be 0.817 with GW-2580 + Trametinib (first compound 8 µM); 0.309 with GW-2580 + Navitoclax (first compound 0.08 µM); 0.342 with GW-2580 + Navitoclax (first compound 0.8 µM); 0.291 with GW-2580 + Navitoclax (first compound 2.53 µM); 0.324 in the assay with GW-2580 + Navitoclax (first compound 8 µM); 0.338 in the assay with Fedratinib + Phenformin (first compound 0.1 µM). For the same cell line, the relative viability in the assay with Fedratinib + Phenformin (first compound 0.3162 µM) worked out at 0.272; with Fedratinib + Phenformin (first compound 1 µM), 0.359; with GW-2580 + Linsitinib (first compound 0.08 µM), 1.02; in the assay with GW-2580 + Linsitinib (first compound 0.8 µM), 1.15; in the assay with GW-2580 + Linsitinib (first compound 2.53 µM), 0.998; with GW-2580 + Linsitinib (first compound 8 µM), 1.02.
